Experimental data taken from patent US20060275299A1, “Use of protein tyrosine phosphatase inhibitors for prevention and/or treatment of cancer” (priority 2002, published 2006).

Legend:
Format in all cases: cell-based, human
Sap-1 [1] = assay: Chemical cross-linking of Sap-1 constructs in transfected COS7 cells (Western blot); conditions: for cross-linking of ECD-deleted Sap-1 / cross-linking of full-length (FL) Sap-1: anti-HA Western blot, FIG. 5
Experimental: COS 7 cells were transfected with the indicated construct and left for 24 hours at 37° C. Medium was changed and a solution of BS3 (Pierce) in PBS (2.5 mg/ml) or PBS alone was added, and left for 1 hour at 4° C. The cross-linking reaction was stopped by the addition of PBS that contained 0.15 M Tris pH 7.5 for 15 minutes at 4° C. Cells were finally lysed and the protein content was used for further analysis. The treatment with DSS (Pierce) was the same except that the product was dissolved in DMSO at a concentration of 25 mM (10×). It was then diluted in PBS and cells were incubated with 0.1×DMSO.

WiDr cells = assay: Streptolysin transfection of antisense ODN and BrdU proliferation assay; conditions: BrdU, streptolysin-O, ODN 1 mM final
Sap-1 [2] = assay: DTT treatment of Sap-1 overexpressing COS7 cells, multimers on non-reducing gel
Experimental: Cells treated with DTT were serum-starved 8 hours after transfection (with PTP-Sap1 constructs or vector), and then incubated for 30 minutes in serum-free medium with various amount of DTT (Sigma). Before lysis in a buffer containing 150 mM iodoacetamide (“IODA” Sigma), cells were washed with ice cold PBS containing 50 mM iodoacetamide in order to block the free DTT. Samples were run under reducing and non-reducing conditions, with or without β-mercaptoethanol in the sample buffer, respectively.

## O=C(CCCCCCC(=O)ON1C(=O)CC(S(=O)(=O)O)C1=O)ON1C(=O)CC(S(=O)(=O)O)C1=O (stereo not drawn) [BS3, Bis-Sulfosuccinimidyl-Suberate]
Sap-1 [1]
  cross-linking of ECD-deleted Sap-1: no effect
  cross-linking of full-length (FL) Sap-1: induces the formation of a complex with high MW
Sap-1 [1]; anti-Myc Western blot, FIG. 8A
  cross-linking of FLEX-Cterm Sap-1 construct: efficiently cross-linked

## O=C(CCCCCCC(=O)ON1C(=O)CCC1=O)ON1C(=O)CCC1=O [DSS, Di-Succinimidyl-Suberate]
Sap-1 [1]; FIG. 5B right panel
  cross-linking of membrane-associated ECD-deleted Sap-1 lacking transmembrane domain (lck myristoylation peptide): could not be cross-linked
Sap-1 [1]
  cross-linking of ECD-deleted Sap-1: but not ECD-deleted Sap-1
  cross-linking of full-length (FL) Sap-1: able to cross-link

## AS2: antisense ODN to PTP-SAP1 mRNA: TGACCCGGGTCCAAGGCCAT (antisense TGACCCGGGTCCAAGGCCAT; chemistry not given here)
WiDr cells
  reduction of the proliferation: 20%

## O[C@H](CS)[C@H](O)CS (racemic) [DTT, Dithiothreitol]
Sap-1 [2]; 30 minutes at 50 mM DTT, washout, 15 minutes recovery without DTT
  reversibility of multimer disruption: fully restored formation of the multimers
Sap-1 [2]; cells incubated 30 minutes in DTT, FIG. 6B
  multimerized Sap-1 on non-reducing gel: dose-dependent decrease
